Source: PubChem BioAssay (NCI)
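Where inhibition never reached the appropriate level, the endpoint shown equals the highest concentration tested. Otherwise, values were interpolated linearly from a five-concentration, 48-hour dose response in 96-well plates. GI50 = concentration required for 50% inhibition of growth. TGI: concentration producing complete growth inhibition.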

Legend:
Assay in all cases: growth of human tumour cells (NCI), 48 h
786-0 renal = tested on: 786-0 renal
A549 NSCLC = tested on: A549 NSCLC
ACHN renal = tested on: ACHN renal
CAKI-1 renal = tested on: CAKI-1 renal
CCRF-CEM leukemia = tested on: CCRF-CEM leukemia
EKVX NSCLC = tested on: EKVX NSCLC
HCC-2998 colon = tested on: HCC-2998 colon
HOP-62 NSCLC = tested on: HOP-62 NSCLC
HOP-92 NSCLC = tested on: HOP-92 NSCLC
HS 578T breast = tested on: HS 578T breast
K-562 leukemia = tested on: K-562 leukemia
LOX IMVI melanoma = tested on: LOX IMVI melanoma
MCF7 breast = tested on: MCF7 breast
MDA-MB-231 breast = tested on: MDA-MB-231 breast
MDA-MB-435 = tested on: MDA-MB-435
NCI-H226 lung = tested on: NCI-H226 lung
NCI-H23 lung = tested on: NCI-H23 lung
NCI-H522 lung = tested on: NCI-H522 lung
NCI/ADR-RES ovarian = tested on: NCI/ADR-RES ovarian
OVCAR-3 ovarian = tested on: OVCAR-3 ovarian
OVCAR-4 ovarian = tested on: OVCAR-4 ovarian
OVCAR-5 ovarian = tested on: OVCAR-5 ovarian
PC-3 prostate = tested on: PC-3 prostate
RPMI-8226 leukemia = tested on: RPMI-8226 leukemia
SF-295 CNS = tested on: SF-295 CNS
SF-539 CNS = tested on: SF-539 CNS
SK-MEL-2 melanoma = tested on: SK-MEL-2 melanoma
SNB-19 CNS = tested on: SNB-19 CNS
SW-620 colon = tested on: SW-620 colon
T-47D breast = tested on: T-47D breast
TK-10 renal = tested on: TK-10 renal
UACC-257 melanoma = tested on: UACC-257 melanoma
UO-31 renal = tested on: UO-31 renal
HCT-116 colon = tested on: HCT-116 colon
HL-60(TB) leukemia = tested on: HL-60(TB) leukemia
IGROV1 ovarian = tested on: IGROV1 ovarian
MOLT-4 leukemia = tested on: MOLT-4 leukemia
RXF 393 renal = tested on: RXF 393 renal
SF-268 CNS = tested on: SF-268 CNS
SNB-75 CNS = tested on: SNB-75 CNS

`COc1cccc(C2CC(=O)c3cc(N4CCCC4)ccc3N2)c1` (centres undefined) gave a TGI (786-0 renal) greater than 100 µM, a TGI (A549 NSCLC) greater than 100 µM and a TGI (ACHN renal) of 34.8 µM. The TGI (CAKI-1 renal) was greater than 100 µM, the TGI (CCRF-CEM leukemia) was greater than 100 µM and the TGI (EKVX NSCLC) was greater than 100 µM. It also gave a GI50 (HCC-2998 colon) of 0.0146 µM, a TGI (HCC-2998 colon) of 0.389 µM and a TGI (HOP-62 NSCLC) greater than 100 µM. It also gave a GI50 (HOP-92 NSCLC) greater than 100 µM, a TGI (HOP-92 NSCLC) greater than 100 µM and a TGI (HS 578T breast) greater than 100 µM. It also gave a TGI (K-562 leukemia) greater than 100 µM, a TGI (LOX IMVI melanoma) greater than 100 µM and a GI50 (MCF7 breast) of 0.0739 µM. For the same compound, the TGI (MCF7 breast) was greater than 100 µM, the GI50 (MDA-MB-231 breast) was 4.66 µM and the TGI (MDA-MB-231 breast) was greater than 100 µM. The TGI (MDA-MB-435) was 1.49 µM, the TGI (NCI-H226 lung) was 36.3 µM and the TGI (NCI-H23 lung) was 0.163 µM. It also gave a TGI (NCI-H522 lung) of 0.0624 µM, a TGI (NCI/ADR-RES ovarian) of 0.0491 µM and a TGI (OVCAR-3 ovarian) greater than 100 µM. The TGI (OVCAR-4 ovarian) was greater than 100 µM, the GI50 (OVCAR-5 ovarian) was greater than 100 µM and the TGI (OVCAR-5 ovarian) was greater than 100 µM. It also gave a TGI (PC-3 prostate) greater than 100 µM, a TGI (RPMI-8226 leukemia) greater than 100 µM and a TGI (SF-295 CNS) greater than 100 µM. It also gave a TGI (SF-539 CNS) greater than 100 µM, a GI50 (SK-MEL-2 melanoma) of 64.5 µM and a TGI (SK-MEL-2 melanoma) greater than 100 µM. The TGI (SNB-19 CNS) was greater than 100 µM, the TGI (SW-620 colon) was greater than 100 µM and the TGI (T-47D breast) was greater than 100 µM. The GI50 (TK-10 renal) was 45.5 µM, the TGI (TK-10 renal) was greater than 100 µM and the TGI (UACC-257 melanoma) was greater than 100 µM. For the same compound, the TGI (UO-31 renal) was 65.8 µM.

Compound `O=c1cc(-c2ccccc2)oc2cc(OCc3cn(Cc4ccc(F)cc4)nn3)cc(OCc3cn(Cc4ccc(F)cc4)nn3)c12` has a GI50 (CCRF-CEM leukemia) greater than 100 µM, a TGI (CCRF-CEM leukemia) greater than 100 µM and a GI50 (HCC-2998 colon) greater than 100 µM. The TGI (HCC-2998 colon) was greater than 100 µM, the GI50 (HCT-116 colon) was 3.52 µM and the TGI (HCT-116 colon) was greater than 100 µM. It also gave a GI50 (HL-60(TB) leukemia) greater than 100 µM, a TGI (HL-60(TB) leukemia) greater than 100 µM and a GI50 (HOP-92 NSCLC) of 1.89 µM. The TGI (HOP-92 NSCLC) was 5.52 µM, the GI50 (HS 578T breast) was 3.28 µM and the TGI (HS 578T breast) was greater than 100 µM. It also gave a GI50 (IGROV1 ovarian) of 4.45 µM, a TGI (IGROV1 ovarian) greater than 100 µM and a GI50 (K-562 leukemia) greater than 100 µM. For the same compound, the TGI (K-562 leukemia) was greater than 100 µM, the GI50 (MOLT-4 leukemia) was greater than 100 µM and the TGI (MOLT-4 leukemia) was greater than 100 µM. For the same compound, the GI50 (NCI-H23 lung) was 3.7 µM, the TGI (NCI-H23 lung) was greater than 100 µM and the GI50 (NCI-H522 lung) was 3.66 µM. It also gave a TGI (NCI-H522 lung) greater than 100 µM, a GI50 (NCI/ADR-RES ovarian) greater than 100 µM and a TGI (NCI/ADR-RES ovarian) greater than 100 µM. For the same compound, the GI50 (RXF 393 renal) was 1.78 µM, the TGI (RXF 393 renal) was 4.5 µM and the GI50 (SF-268 CNS) was 3.52 µM. The TGI (SF-268 CNS) was greater than 100 µM, the GI50 (SK-MEL-2 melanoma) was 4.49 µM and the TGI (SK-MEL-2 melanoma) was 33.1 µM. It also gave a GI50 (SNB-19 CNS) of 4.55 µM, a TGI (SNB-19 CNS) greater than 100 µM and a GI50 (SNB-75 CNS) of 1.69 µM. It also gave a TGI (SNB-75 CNS) of 4.85 µM.
